{"source": "patent US5135912A", "about": "“Natriuretic peptides from the pituitary prohormone proopiomelanocortin” (Tosoh Corporation, priority 1988, dated 1992)", "test_system": "rats", "assay": "Natriuretic and diuretic effect of intravenous bolus injection in anesthetized rats", "type": "in vivo, rat", "conditions": "30 to 60 min after minus 30 to 0 min before injection, mean ± SEM", "experimental": "Diuretic and natriuretic activity of the peptides of this invention is assayed in male rats of the Sprague-Dawley or Long-Evans strains. Peptide or vehicle (for control purposes) is administered by intravenous bolus injection or by continuous infusion into one renal artery of animals anesthetized for the duration of the experiment, or by intramuscular or subcutaneous injection into animals only briefly anesthetized with ether and subsequently conscious and freely moving until completion of the experiment. Timed urine samples are collected for determination of volume and measurement of sodium and potassium concentration by flame photometry. Details of each method are given in Examples II to IV below.\nThe natriuretic and diuretic effect of intravenous bolus injection of peptides F15R, G13R and E19R was tested in male Sprague-Dawley or Long-Evans rats weighing 300-400 g. The animals were given Inactin®, 120 mg per kg body weight i.p. under light ether anesthesia. Following placement of a tracheal cannula, the right femoral vein was catheterized for infusion of 5% bovine serum albumin at a dose of 0.4% of body weight and at a rate of 6.0 ml/hour. Subsequently, normal saline was infused for the duration of the experiment at a rate of 2.0 ml/hour. The bladder was exposed through an abdominal incision and catheterized for urine collection. Serial 15-minute urine collections in preweighed vials were begun after a recovery period of 45 minutes. After collection of four control samples, the peptide in 0.1 ml of vehicle was injected into the femoral vein over a period of 1 minute and 6 to 10 further urine samples were collected. Urine volume was determined by weighing and urine sodium and potassium were assayed by flame photometry. All peptides produced natriuresis and diuresis reaching peak levels usually between 30 and 60 minutes after injection. The difference between urine volume and sodium excretion observed from 30 to 60 minutes after and 30 to 0 minutes before peptide administration was calculated for each rat as a measure of activity.", "note": "Where no end group is shown, it is not given here.", "data": [{"sequence": "GNGDEQPLTPNPR [G13R]", "values": [{"measurement": "Change in Sodium Excretion", "setting": "i.v. bolus 0.100 nmol", "value": "8.39 ± 4.41", "unit": "μeq/30 minutes"}, {"measurement": "Change in Urine Volume", "setting": "i.v. bolus 0.100 nmol", "value": "80.0 ± 29.2", "unit": "μl/30 minutes"}, {"measurement": "Change in Sodium Excretion", "setting": "i.v. bolus 1.00 nmol", "value": "12.48 ± 6.22", "unit": "μeq/30 minutes"}, {"measurement": "Change in Urine Volume", "setting": "i.v. bolus 1.00 nmol", "value": "62.0 ± 17.2", "unit": "μl/30 minutes"}]}]}
